Measured values from patent US8883782B2, “Spiro-tetracyclic ring compounds as beta-secretase modulators and methods of use” (Amgen Inc., priority 2010, dated 2014).
pIC50: −log10 of the molar value. Where two headings read alike, the source gives them in different places.

Columns and labels:
[1] = test system: Aβ40 in conditioned medium of cells stably expressing Amyloid Precursor Protein (APP); assay: In vitro BACE cell-based assay (Aβ40 in conditioned medium, sandwich ELISA); settings: Homo sapiens, read-out: HEK cell assay
Summary of the method: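 Step two: 10-point compound titration added, starting 100 μM or 10 μM, 0.1% DMSO. Step three: medium Aβ40 measured by ELISA, capture 3 h and detection 2 h at 4° C, TRF read.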

[2] = biological target: Beta Secretase enzyme (BACE) (Homo sapiens, UniProt P56817); assay: In vitro enzymatic BACE FRET (fluorescence resonance energy transfer) assay; assay type: biochemical; settings: average IC50, enzyme assay; read-out: BACE 1 FRET assay
Summary of the method: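 Fluorescence read after Tris quench to neutral pH. Reaction: 50 nM fluorophore/quencher peptide substrate, 1 h, in 0.05 M acetate pH 4.2, 10% DMSO final, 100 uM genapol.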

[3] = HEK293, average IC50, HEK cells

Beta Secretase enzyme (BACE), sequence (P56817 46-501, species assumed): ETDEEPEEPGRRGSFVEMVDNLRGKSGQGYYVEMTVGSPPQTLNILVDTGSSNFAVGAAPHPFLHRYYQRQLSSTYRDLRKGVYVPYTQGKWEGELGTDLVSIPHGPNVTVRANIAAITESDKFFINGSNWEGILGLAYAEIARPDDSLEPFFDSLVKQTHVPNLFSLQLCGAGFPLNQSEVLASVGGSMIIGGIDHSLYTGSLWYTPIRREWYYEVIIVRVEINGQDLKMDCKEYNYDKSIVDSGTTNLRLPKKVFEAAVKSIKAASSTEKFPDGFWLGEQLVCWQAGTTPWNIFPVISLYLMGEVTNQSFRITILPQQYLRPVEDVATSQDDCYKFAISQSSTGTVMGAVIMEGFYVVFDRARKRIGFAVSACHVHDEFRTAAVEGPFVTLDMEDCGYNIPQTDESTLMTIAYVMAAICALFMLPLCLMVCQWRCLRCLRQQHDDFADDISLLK

| pIC50 ([1]; HEK293, average IC50) | pIC50 [2] | pIC50 [1, 3] | Compound |
| --- | --- | --- | --- |
| 6.12 | 7.47 |  | Cc1cccc(Oc2ccc3c(c2)[C@@]2(COC(N)=N2)c2cc(C4=CCOCC4)cc(F)c2O3)n1 [Example 1063, (4S)-2′-(3,6-dihydro-2H-pyran-4-yl)-4′-fluoro-7′-((6-methyl-2-pyridinyl)oxy)spiro[1,3-oxazole-4,9′-xanthen]-2-amine] |
|  | 9.10 | 7.92 | NC1=N[C@@]2(CO1)c1cc(-c3cccnc3F)ccc1Oc1c(F)cc(-c3ccnnc3)cc12 [Example 686, (4S)-4′-fluoro-7′-(2-fluoro-3-pyridinyl)-2′-(4-pyridazinyl)spiro[1,3-oxazole-4,9′-xanthen]-2-amine] |
| 7.08 | 8.12 |  | COc1ncc(-c2cc(F)c3c(c2)[C@]2(COC(N)=N2)c2cc(-c4cncc(F)c4)ccc2O3)cn1 [Example 293, (4S)-4′-fluoro-7′-(5-fluoro-3-pyridinyl)-2′-(2-methoxy-5-pyrimidinyl)spiro[1,3-oxazole-4,9′-xanthen]-2-amine] |
| 6.24 | 7.11 |  | COc1cccc(Nc2ccc3c(c2)[C@@]2(COC(N)=N2)c2cc(N4CCOCC4)cc(F)c2O3)c1 [Example 198, (4S)-5′-fluoro-N~2~′-(3-methoxyphenyl)-7′-(4-morpholinyl)spiro[1,3-oxazole-4,9′-xanthene]-2,2′-diamine] |
| 8.42 | 9.10 |  | NC1=N[C@@]2(CO1)c1cc(-c3cncc(Cl)c3)ccc1Oc1c(F)cc(N3CCOCC3)cc12 [Example 208, (4S)-7′-(5-chloro-3-pyridinyl)-4′-fluoro-2′-(4-morpholinyl)spiro[1,3-oxazole-4,9′-xanthen]-2-amine] |
|  | 8.60 | 7.90 | COc1ccc(OC)c(-c2ccc3c(c2)[C@@]2(COC(N)=N2)c2cc(C4=CCOCC4)cnc2O3)c1 [Example 502, (5S)-3-(3,6-dihydro-2H-pyran-4-yl)-7-(2,5-dimethoxyphenyl)spiro[chromeno[2,3-b]pyridine-5,4′-[1,3]oxazol]-2′-amine] |
|  | 9.22 | 8.40 | NC1=N[C@@]2(CO1)c1cc(-c3cccnc3F)ccc1Oc1c(F)cc(N3CC4(CCCOC4)C3)cc12 [Example 856, (4S)-4′-fluoro-7′-(2-fluoro-3-pyridinyl)-2′-(6-oxa-2-azaspiro[3.5]non-2-yl)spiro[1,3-oxazole-4,9′-xanthen]-2-amine] |
|  | 6.37 | 5.07 | COc1ccc2c(c1)[C@@]1(COC(N)=N1)c1cc(-n3nccc3C)cc(F)c1O2 [Example 663, (4S)-4′-fluoro-7′-methoxy-2′-(5-methyl-1H-pyrazol-1-yl)spiro[1,3-oxazole-4,9′-xanthen]-2-amine] |
| 8.06 | 8.80 |  | COc1cncc(-c2ccc3c(c2)[C@@]2(COC(N)=N2)c2cc(C4=CCOCC4)ncc2O3)c1 [Example 144, (5S)-3-(3,6-dihydro-2H-pyran-4-yl)-7-(5-methoxy-3-pyridinyl)spiro[chromeno[2,3-c]pyridine-5,4′-[1,3]oxazol]-2′-amine] |
|  | 5.58 | 6.38 | NC1=N[C@@]2(CO1)c1cc(-c3ccnc(F)c3)ccc1Oc1cnc(Cl)cc12 [Example 675, (5S)-3-chloro-7-(2-fluoro-4-pyridinyl)spiro[chromeno[2,3-c]pyridine-5,4′-[1,3]oxazol]-2′-amine] |
|  | 9.22 | 8.52 | COc1ccnc(F)c1-c1ccc2c(c1)[C@@]1(COC(N)=N1)c1cc(C3=CCOCC3)ncc1O2 [Example 612, (5S)-3-(3,6-dihydro-2H-pyran-4-yl)-7-(2-fluoro-4-methoxy-3-pyridinyl)spiro[chromeno[2,3-c]pyridine-5,4′-[1,3]oxazol]-2′-amine] |
| 7.20 | 8.47 |  | NC1=N[C@@]2(CO1)c1cc(-c3cccc(Cl)c3)ccc1Oc1cnc(C3CCOCC3)cc12 [Example 241, (5S)-7-(3-chlorophenyl)-3-(tetrahydro-2H-pyran-4-yl)spiro[chromeno[2,3-c]pyridine-5,4′-[1,3]oxazol]-2′-amine] |
| 7.70 | 8.57 |  | CC(C)(F)COc1cc(F)c2c(c1)[C@]1(COC(N)=N1)c1cc(-c3ccc(F)nc3)ccc1O2 [Example 259, (4S)-4′-fluoro-2′-(2-fluoro-2-methylpropoxy)-7′-(6-fluoro-3-pyridinyl)spiro[1,3-oxazole-4,9′-xanthen]-2-amine] |
|  | 9.52 | 8.70 | NC1=N[C@@]2(CO1)c1cc(-c3cncc(F)c3)ccc1Oc1c2cc(C2=CCOCC2)nc1F [Example 615, (5S)-3-(3,6-dihydro-2H-pyran-4-yl)-1-fluoro-7-(5-fluoro-3-pyridinyl)spiro[chromeno[2,3-c]pyridine-5,4′-[1,3]oxazol]-2′-amine] |

The next lines start with the molecule.

| Compound | pIC50 ([1]; HEK293, average IC50) | pIC50 [2] | pIC50 [1, 3] |
| --- | --- | --- | --- |
| NC1=N[C@]2(CO1)c1cc(-c3cccnc3F)ccc1Oc1cc(OC(F)(F)F)c(-c3ccnc(F)c3)cc12 [Example 990, (4R)-7′-(2-fluoro-3-pyridinyl)-2′-(2-fluoro-4-pyridinyl)-3′-(trifluoromethoxy)spiro[1,3-oxazole-4,9′-xanthen]-2-amine] | 5.14 | 5.09 |  |
| COc1cccc(COc2ccc3c(c2)[C@@]2(COC(N)=N2)c2cc(-c4cccnc4)cnc2O3)c1 [Example 983, (5S)-7-((3-methoxybenzyl)oxy)-3-(3-pyridinyl)spiro[chromeno[2,3-b]pyridine-5,4′-[1,3]oxazol]-2′-amine] | 6.50 | 7.61 |  |
| COC(C)(C)C#Cc1cnc2c(c1)[C@]1(COC(N)=N1)c1cc(-c3cncc(F)c3)c(F)cc1O2 [Example 641, (5S)-8-fluoro-7-(5-fluoro-3-pyridinyl)-3-(3-methoxy-3-methyl-1-butyn-1-yl)spiro[chromeno[2,3-b]pyridine-5,4′-[1,3]oxazol]-2′-amine] |  | 9.05 | 7.89 |
| C[C@@](C#Cc1cnc2c(c1)[C@]1(COC(N)=N1)c1cc(-c3cccnc3F)ccc1O2)(CO)CCl [Example 1015, (2R)-4-((5S)-2′-amino-7-(2-fluoro-3-pyridinyl)spiro[chromeno[2,3-b]pyridine-5,4′-[1,3]oxazol]-3-yl)-2-(chloromethyl)-2-methyl-3-butyn-1-ol] | 8.05 | 9.00 |  |
| CC(C)(F)C#Cc1cnc2c(c1)[C@]1(COC(N)=N1)c1cc(-c3cncnc3)c(F)cc1O2 [Example 717, (S)-8-fluoro-3-(3-fluoro-3-methylbut-1-ynyl)-7-(pyrimidin-5-yl)-5′H-spiro[chromeno[2,3-b]pyridine-5,4′-oxazol]-2′-amine] |  | 8.42 | 6.67 |
| NC1=N[C@@]2(CO1)c1cc(OCc3ccc(Br)cc3)ccc1Oc1ncc(-c3cccnc3)cc12 [Example 980, (5S)-7-((4-bromobenzyl)oxy)-3-(3-pyridinyl)spiro[chromeno[2,3-b]pyridine-5,4′-[1,3]oxazol]-2′-amine] | 6.47 | 7.34 |  |
| CC1(C)CC(c2cnc3c(c2)[C@]2(COC(N)=N2)c2c(ccc(-c4cccnc4F)c2F)O3)=CCO1 [Example 349, (5R)-3-(2,2-dimethyl-3,6-dihydro-2H-pyran-4-yl)-6-fluoro-7-(2-fluoro-3-pyridinyl)spiro[chromeno[2,3-b]pyridine-5,4′-[1,3]oxazol]-2′-amine] | 8.10 | 9.15 |  |
| CC1(C#Cc2cnc3c(c2)[C@]2(COC(N)=N2)c2c(ccc(-c4cncnc4)c2F)O3)COC1 [Example 344, (5R)-6-fluoro-3-((3-methyl-3-oxetanyl)ethynyl)-7-(5-pyrimidinyl)spiro[chromeno[2,3-b]pyridine-5,4′-[1,3]oxazol]-2′-amine] | 8.19 | 9.00 |  |
| NC1=N[C@@]2(CO1)c1cc(-c3cccnc3F)ccc1Oc1cnc(-c3cncnc3)cc12 [Example 571, (5S)-7-(2-fluoro-3-pyridinyl)-3-(5-pyrimidinyl)spiro[chromeno[2,3-c]pyridine-5,4′-[1,3]oxazol]-2′-amine] |  | 8.18 | 6.96 |
| NC1=N[C@@]2(CO1)c1cc(-c3cccnc3F)ccc1Oc1nc(F)c(N3CCOCC3)cc12 [Example 714, (S)-2-fluoro-7-(2-fluoropyridin-3-yl)-3-morpholino-5′H-spiro[chromeno[2,3-b]pyridine-5,4′-oxazol]-2′-amine] |  | 8.44 | 7.26 |
| CC(C)(O)CCc1ccc2c(c1)[C@]1(COC(N)=N1)c1cc(-c3cncnc3)c(F)cc1O2 [Example 96, (R)-4-(2-amino-3′-fluoro-2′-(pyrimidin-5-yl)-5H-spiro[oxazole-4,9′-xanthene]-7′-yl)-2-methylbutan-2-ol] | 7.64 | 7.97 |  |
| CC1(C#Cc2cnc3c(c2)[C@]2(COC(N)=N2)c2cc(-c4cncc(Cl)c4)ccc2O3)COC1 [Example 186, (5S)-7-(5-chloro-3-pyridinyl)-3-((3-methyl-3-oxetanyl)ethynyl)spiro[chromeno[2,3-b]pyridine-5,4′-[1,3]oxazol]-2′-amine] | 8.52 | 9.30 |  |
| CC1(C#Cc2cc3c(cc2OC(F)(F)F)Oc2ccc(-c4cccnc4F)cc2[C@@]32COC(N)=N2)COC1 [Example 986, (4S)-7′-(2-fluoro-3-pyridinyl)-2′-((3-methyl-3-oxetanyl)ethynyl)-3′-(trifluoromethoxy)spiro[1,3-oxazole-4,9′-xanthen]-2-amine] | 5.55 | 6.71 |  |
| CC(C)(C)/C=C/c1cc2c(cn1)Oc1cc(F)c(-c3cncnc3)cc1[C@@]21COC(N)=N1 [Example 304, (5S)-3-((1E)-3,3-dimethyl-1-buten-1-yl)-8-fluoro-7-(5-pyrimidinyl)spiro[chromeno[2,3-c]pyridine-5,4′-[1,3]oxazol]-2′-amine] | 7.62 | 8.68 |  |
